PMC10442441, “Characterization of two O-methyltransferases involved in the biosynthesis of O-methylated catechins in tea plant” (Nature Communications, 2023)
Where two headings read alike, the source gives them in different places.

Molecular target: T1, CsFAOMT1 (Camellia sinensis, UniProt A0A7J7GXF2)
T1 construct: gene HYC85_015345
Conditions: 1.0 mM Mg2+, pH 7.4, 40 °C, exact value in supplement

T1 sequence (A0A7J7GXF2 entry or part of it): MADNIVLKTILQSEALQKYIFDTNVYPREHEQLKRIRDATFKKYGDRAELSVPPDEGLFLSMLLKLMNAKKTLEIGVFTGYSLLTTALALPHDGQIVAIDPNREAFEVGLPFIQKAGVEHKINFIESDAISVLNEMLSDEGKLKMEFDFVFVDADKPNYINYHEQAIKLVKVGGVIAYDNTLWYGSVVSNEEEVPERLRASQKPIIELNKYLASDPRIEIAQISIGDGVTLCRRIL

Row | Compound | Km (1 mM SAM) | Km (saturating SAM)
1 | O=c1c(O[C@@H]2O[C@H](CO)[C@@H](O)[C@H](O)[C@H]2O)c(-c2ccc(O)c(O)c2)oc2cc(O)cc(O)c12 [isoquercitrin] | > 2500 µM | 
2 | COC(=O)c1cc(O)c(O)c(O)c1 [methyl gallate] |  | < 4 µM
3 | O=c1c(O)c(-c2cc(O)c(O)c(O)c2)oc2cc(O)cc(O)c12 [myricetin] |  | < 4 µM
